Results: the NIST ThermoML archive (doi:10.1021/je500804j)

Assay: mn = molality of the nth substance listed, in mol/kg
Conditions: 101 kPa, Liquid, Alternating current cell with electrodes

CCCCCCCC[N+](C)(C)CCCCCC[N+](C)(C)CCCCCCCC.[Br-].[Br-] + O
Conditions | electrical conductivity [S/m]
288.15 K, m1 = 0.00378 | 0.05571
288.15 K, m1 = 0.00747 | 0.1028
288.15 K, m1 = 0.01106 | 0.1443
288.15 K, m1 = 0.01457 | 0.1827
288.15 K, m1 = 0.01799 | 0.2183
288.15 K, m1 = 0.02133 | 0.252
288.15 K, m1 = 0.02458 | 0.2838
288.15 K, m1 = 0.02776 | 0.3124
288.15 K, m1 = 0.03087 | 0.3407
288.15 K, m1 = 0.0339 | 0.3668
288.15 K, m1 = 0.03687 | 0.3917
288.15 K, m1 = 0.03977 | 0.4158
288.15 K, m1 = 0.0426 | 0.4383
288.15 K, m1 = 0.04537 | 0.4604
288.15 K, m1 = 0.04808 | 0.4812
288.15 K, m1 = 0.05073 | 0.5011
288.15 K, m1 = 0.05333 | 0.521
288.15 K, m1 = 0.05587 | 0.5391
288.15 K, m1 = 0.05835 | 0.555
288.15 K, m1 = 0.06079 | 0.5717
288.15 K, m1 = 0.06318 | 0.5855
288.15 K, m1 = 0.06551 | 0.6042
288.15 K, m1 = 0.0678 | 0.6203
288.15 K, m1 = 0.07005 | 0.6375
288.15 K, m1 = 0.07225 | 0.653
288.15 K, m1 = 0.07441 | 0.6677
288.15 K, m1 = 0.07652 | 0.6826
288.15 K, m1 = 0.0786 | 0.6955
288.15 K, m1 = 0.08064 | 0.7092
288.15 K, m1 = 0.08264 | 0.7199
288.15 K, m1 = 0.0846 | 0.7323
288.15 K, m1 = 0.08652 | 0.7423
288.15 K, m1 = 0.08841 | 0.7524
288.15 K, m1 = 0.09027 | 0.7618
288.15 K, m1 = 0.09209 | 0.7705
288.15 K, m1 = 0.09388 | 0.7794
288.15 K, m1 = 0.09564 | 0.7883
288.15 K, m1 = 0.09737 | 0.7958
288.15 K, m1 = 0.09907 | 0.8039
288.15 K, m1 = 0.1007 | 0.812
288.15 K, m1 = 0.1024 | 0.817
288.15 K, m1 = 0.104 | 0.8214
288.15 K, m1 = 0.1056 | 0.8271
288.15 K, m1 = 0.1071 | 0.8323
288.15 K, m1 = 0.1087 | 0.836
288.15 K, m1 = 0.1102 | 0.8402
288.15 K, m1 = 0.1117 | 0.8452
288.15 K, m1 = 0.1131 | 0.8492
288.15 K, m1 = 0.1146 | 0.8528
288.15 K, m1 = 0.116 | 0.8565
293.15 K, m1 = 0.00416 | 0.07018
293.15 K, m1 = 0.00821 | 0.09599
293.15 K, m1 = 0.01215 | 0.154
293.15 K, m1 = 0.01598 | 0.2062
293.15 K, m1 = 0.01972 | 0.2543
293.15 K, m1 = 0.02336 | 0.2987
293.15 K, m1 = 0.02691 | 0.3399
293.15 K, m1 = 0.03037 | 0.3785
293.15 K, m1 = 0.03374 | 0.415
293.15 K, m1 = 0.03704 | 0.4499
293.15 K, m1 = 0.04025 | 0.4818
293.15 K, m1 = 0.04339 | 0.5127
293.15 K, m1 = 0.04645 | 0.5415
293.15 K, m1 = 0.04944 | 0.5687
293.15 K, m1 = 0.05237 | 0.5953
293.15 K, m1 = 0.05523 | 0.6199
293.15 K, m1 = 0.05802 | 0.6436
293.15 K, m1 = 0.06075 | 0.6658
293.15 K, m1 = 0.06342 | 0.6867
293.15 K, m1 = 0.06604 | 0.707
293.15 K, m1 = 0.06859 | 0.7264
293.15 K, m1 = 0.0711 | 0.7446
293.15 K, m1 = 0.07355 | 0.762
293.15 K, m1 = 0.07595 | 0.7782
293.15 K, m1 = 0.0783 | 0.7934
293.15 K, m1 = 0.0806 | 0.8076
293.15 K, m1 = 0.08285 | 0.8213
293.15 K, m1 = 0.08507 | 0.8335
293.15 K, m1 = 0.08723 | 0.8458
293.15 K, m1 = 0.08936 | 0.8569
293.15 K, m1 = 0.09144 | 0.8677
293.15 K, m1 = 0.09348 | 0.8777
293.15 K, m1 = 0.09549 | 0.8873
293.15 K, m1 = 0.09745 | 0.8958
293.15 K, m1 = 0.09938 | 0.9045
293.15 K, m1 = 0.1013 | 0.9127
293.15 K, m1 = 0.1031 | 0.9206
293.15 K, m1 = 0.105 | 0.9279
293.15 K, m1 = 0.1068 | 0.9349
293.15 K, m1 = 0.1085 | 0.9413
293.15 K, m1 = 0.1103 | 0.9468
293.15 K, m1 = 0.1119 | 0.9533
293.15 K, m1 = 0.1136 | 0.9594
293.15 K, m1 = 0.1153 | 0.9653
293.15 K, m1 = 0.1169 | 0.9709
293.15 K, m1 = 0.1185 | 0.9766
293.15 K, m1 = 0.12 | 0.9819
293.15 K, m1 = 0.1216 | 0.9868
293.15 K, m1 = 0.1231 | 0.9919
